Assays:
HCT116 = experiment: MTT screening assay, HCT116; assay type: cell-based; settings: Homo sapiens, HCT-116, 72 h incubation
Description: (§1) The ability of newly synthesized indole phytoalexins to suppress cell proliferation was screened in vitro on eight cancer cell lines including human colorectal carcinoma (Caco-2 and HCT116), human cervical cancer (HeLa), human breast adenocarcinoma (MCF-7, MDA-MB-231), human alveolar adenocarcinoma (A549) and human leukemic T cell lymphoma (Jurkat), and two non-cancer cell lines (MCF-10A, Cos-7).
(§2) The cell lines used for this study were Caco-2 (human colorectal adenocarcinoma cell line, American Type Culture Collection, Manassas, VA, USA (ATCC)), HCT116 (human colorectal carcinoma cells European Collection of Authenticated Cell Cultures, Salisbury, UK (ECACC)), HeLa (human cervical tumor cells, ECACC), MCF-7 (human breast tumor cells, ECACC), MDA-MB-231 (human breast tumor cells, ATCC), A549 (human lung carcinoma cells, ATCC), BLM (human melanoma lung metastases, a gift from prof. K. Smetana, Institute of Anatomy, Charles University in Prague), Jurkat (human leukemia cell line, ECACC), Cos-7 (immortalized monkey kidney fibroblasts, ATCC) and MCF-10A (human mammary epithelial cells, ATCC). Caco-2, MCF-7, BLM, Cos-7 and A549 cells were cultured in Dulbecco’s Modified Eagle’s Medium (DMEM) with high glucose and sodium pyruvate (GE Healthcare, Piscataway, NJ, USA); HCT116 lines, HeLa, MDA-MB-231 and Jurkat were cultured in RPMI-1640 medium; and MCF10A cells were cultured in high glucose DMEM/F12 (Dulbecco’s Modified Eagle’s Medium F12). The media were enriched with 10% fetal bovine serum (FBS) and a 1% solution of a mixture of antibiotics and antimycotics 1× HyClone™ (GE Healthcare, Chicago, IL, USA). DMEM/F12 medium was supplemented with epidermal growth factor (EGF) (20 ng/mL final), hydrocortisone (0.5 μg/mL final) and insulin (10 μg/mL final) (Sigma-Aldrich Chemie, Steinheim, Germany). The cells were placed in an incubator at 37 °C with humidified air containing 5% CO2.
(§3) The MTT assay is a colorimetric method used to quantify the metabolic activity of cells. MTT (3-(4,5-di-methylthiazol-2-yl)2,5-diphenyltetrazolium bromide) (Sigma-Aldrich Chemie, Steinheim, Germany) is reduced by oxidoreductases in the cytosol of cells to light-absorbing formazan, the presence of which can be measured spectrophotometrically and determines the half-maximal inhibitory concentration (IC50). A549 cells were seeded in […] culture plates at a density of 5 × 10^3 per well. […]
(§4) We also incubated the cells with chloroquine at concentrations of 5–20 µM, which was added 1 h before the addition of the test substance, and cisplatin at concentrations of 3–10 µM. […] After 24 h, the absorbance was measured at a wavelength of 540 nm using an automated Cytation™ 3 Cell Imaging Multi-Mode Reader (Biotek, Winooski, VT, USA). […]

glutathione (GSH) = experiment: GSH content in treated A549 cells; assay type: cell-based, human; settings: A549, 20 µM
Description: (§5) Glutathione is an important intracellular molecule involved in carcinogen detoxification. On the other hand, its elevated state in cancer cells is often associated with resistance to chemotherapy. […] Because high levels of GSH are associated with cancer cell resistance, the GHS-depleting effect of compound 49 could be interesting due to new cancer chemosensitizer development. In the case of GST and GR, we hypothesize that an increase in the activity of both enzymes may be a compensatory mechanism induced by GSH depletion.
(§6) Both floating and adherent A549 cells were harvested at 24, 48, and 72 h after treatment with compound 49 (20 µM). SOD determination kit, Glutathione Peroxidase Cellular Activity Assay kit, Glutathione Reductase Assay Kit and Glutathione-S-transferase (GST) Assay Kit (all Sigma Aldrich, Germany) were used for the detection of relevant enzyme activity. Reduced glutathione (GSH) content was measured by the method originally described by Floreani et al.. Assays were performed on an M 501 single beam UV/VIS spectrophotometer (Spectronic Camspec Ltd., Leeds, United Kingdom). All measured parameters were calculated per milligram or gram of protein determined using the bicinchoninic acid assay.

[1] = system: superoxide dismutase (SOD); experiment: SOD activity in treated A549 cells; assay type: cell-based, human; settings: A549, 20 µM
Description: as §5, §6

A549 cells [2] = experiment: Cell cycle analysis by flow cytometry; assay type: cell-based, human
Experimental: To examine whether the antiproliferative effect of compound 49 is associated with cell cycle arrest, flow cytometry analyses of cell cycle progression were performed.
The A549 lung human alveolar adenocarcinoma cells were seeded at a density of 2 × 10^5/dish. After 24 h incubation, the cells were treated with indole phytoalexin 49 at 20 µM concentration alone or after 1 h pre-treatment with chloroquine (20 µM), and the control group with DMSO (v/v 0.02%). The whole population of treated cells (adherent and floating) for cell cycle analyses was harvested at three different times (24, 48 and 72 h), washed in cold washing buffer (PBS), fixed in cold 70% ethanol and stored at −20 °C at least overnight. For flow cytometry analyses, cell suspensions were washed with PBS, resuspended in staining solution (Triton X-100 final concentration 0.1%, ribonuclease A final concentration 0.5 mg/mL, and propidium iodide final concentration 0.025 mg/mL) and incubated for 30 min in the dark at RT. Stained cells were analyzed using a BD FACSCalibur^TM Flow Cytometer (Becton Dickinson, San Jose, CA, USA) in FL-2 channel. Three independent analyses were performed.

[3] = system: glutathione-S-transferase (GST); experiment: GST activity in treated A549 cells; assay type: cell-based, human; settings: A549, 20 µM
Description: as §5, §6

MDA-MB-231 = experiment: MTT screening assay, MDA-MB-231; assay type: cell-based; settings: Homo sapiens, 72 h incubation
Description: as §1, §2, §3, §4

A549 cells [4] = experiment: MTT assay with chloroquine combination; assay type: cell-based, human; settings: 49 20 μM + CQ 5, 10 and 20 μM, 72 h
Experimental: as §3
We also incubated the cells with chloroquine at concentrations of 5–20 µM, which was added 1 h before the addition of the test substance, and cisplatin at concentrations of 3–10 µM. Cisplatin was added 24 h after the addition of 49. After 72 h of incubation, 10 µL of MTT (5 mg/mL) was added to each well. After 4 h, formazan crystals formed in the wells, which were dissolved in 100 uL of 10% SDS (sodium dodecyl sulfate). After 24 h, the absorbance was measured at a wavelength of 540 nm using an automated Cytation™ 3 Cell Imaging Multi-Mode Reader (Biotek, Winooski, VT, USA). These experiments were performed in three independent replicates.

`CC(C)(C)OC(=O)n1cc(CNC(=O)Nc2ccc(NC(=O)NCc3cn(C(=O)OC(C)(C)C)c4ccccc34)cc2)c2ccccc21` [Compound 49, N,N′-(1,4-phenylene)bis{N′-[1-(tert-butoxycarbonyl)indol-3-yl]methyl (urea)}] showed an IC50 (HCT116) of 8.8 ± 0.6 µM, a GSH (glutathione (GSH); 24 h) of 0.395 ± 0.043 nmol/mg Prot and a GSH (glutathione (GSH); 48 h) of 0.107 ± 0.015 nmol/mg Prot. It also gave a GSH (glutathione (GSH); 72 h) of 0.228 ± 0.062 nmol/mg Prot, an SOD ([1]; 24 h) of 0.408 ± 0.24 μkat/mg Prot and an SOD ([1]; 48 h) of 0.526 ± 0.27 μkat/mg Prot. For the same compound, the SOD ([1]; 72 h) was 0.523 ± 0.38 μkat/mg Prot, the “changes in the G1, S or G2/M phases of the cell cycle” value (A549 cells [2]; A549, 20 µM, 24, 48 and 72 h, vs DMSO) was “non-significant changes” and the “sub-G0/G1 subpopulation (marker of apoptosis)” value (A549 cells [2]; A549, 20 µM, all time points, vs DMSO control) was “minimal changes”. The “cell cycle, combination with CQ” value (A549 cells [2]; A549, 49 20 µM + CQ 20 µM, 24 h, vs DMSO, CQ or 49 alone) was “significant cell cycle arrest at the G1 phase”, the “subG0/G1 subpopulation, combination with CQ” value (A549 cells [2]; A549, 49 20 µM + CQ 20 µM, all time points) was “non-significant changes” and the GST ([3]; 24 h) was 3.540 ± 1.07 μkat/mg Prot. The GST ([3]; 48 h) was 2.580 ± 0.44 μkat/mg Prot, the GST ([3]; 72 h) was 5.060 ± 0.52 μkat/mg Prot and the IC50 (MDA-MB-231) was > 100 µM. The “effect of chloroquine co-treatment on the antiproliferative effect of compound 49 (A549 cell survival)” value (A549 cells [4]) was “significantly potentiated”.
